Measured values as given in patent US7183302B2, “Iminothiazolidinones as inhibitors of HCV replication” (priority 2002, dated 2007).
Where two headings read alike, the source gives them in different places.

Legend:
[1] = tested on: HCV replicon (HCV 1b-377-neo replicon cells); test: HCV replicon cell line and FRET assay; assay type: cell-based
HCV replicon [2] = test: Western analysis of NS3 in replicon cells; assay type: cell-based
Protocol: EC50 values were also determined by Western analysis performed according to the instructions for Chemiluminescence Immunology Kit (Cat# NEL105) Amersham, Arlington Heights, Ill. using a Molecular Dynamics Storm 860 phosphoimager and associated software. Experiments were done in duplicate. The primary and secondary antibody dilutions were at 1 to 5,000. Antisera was generated by immunizing rabbits with purified NS3 protease made from an E. Coli expression vector encoding the first 181 amino acids of HCV 1a NS3 with subsequent boosts. Bleeds were tested weekly and boosts continued until a positive signal on a control western was seen. Secondary antibody was a BioRad (#170-6515) Goat anti-Rabbit IgG HRP Conjugate (Cat# 170-6515) BioRad, Hercules, Calif. The protein samples for western analysis were from the same wells used for the FRET assay and were prepared by the addition of an equal volume of 2×SDS-PAGE buffer to the FRET assay mixture, heating and loading on a 10% gel for SDS-PAGE. Interferon alpha (Cat# I-4276) Sigma, St. Louis, Mo. (IFN-α) was obtained and stored as recommended.

HCV replicon [3] = test: HCV RNA detection by RT-PCR in replicon cells
[4] = tested on: HCV 1b-377-neo replicon cells (Huh-7); test: Alamar blue conversion (cellular toxicity, CC50), wild-type replicon cells; assay type: cell-based
[5] = tested on: wild-type Blast/Luciferase HCV replicon; assay type: cell-based, HCV 1b
[6] = tested on: Y2065C Blast/Luciferase HCV replicon; assay type: cell-based, HCV 1b
[7] = tested on: Y > H replicon cells (Huh-7); test: Alamar blue CC50 on Y > H replicon cells
[8] = tested on: Compound 1-r replicon cells (HCV 377-neo); test: FRET assay on selected Compound 1-r replicon cells; assay type: cell-based; details: initial test
Protocol: HCV 377-neo replicon cells were plated in 100-mm plates with ˜25% confluence after 24 hr seeding. Compound 1 was added at the final concentrations of 5, 10 and 20 μM in the presence of G418. Wild type replicon cells in the absence of the compound were used as a control. After 5–6 weeks, both wt replicon cells and selected cells were tested for their sensitivity to Compound 1. In addition, cell lines derived from individual colonies from different concentrations of selective Compound 1 were also isolated, expanded and tested. In the initial test, approximately 60-fold resistance, judged by the FRET assay, was observed between wt replicon cells and selected replicon cells (designated as Compound 1-r replicon cells).

[9] = tested on: wild-type HCV 377-neo replicon in Huh-7 cells; test: Colony formation under G418 selection, wild-type replicon RNA
[10] = Hepatitis C virus, HCV replicon cell line, FRET assay, read-out: Replicon Inhibition Range EC50
[11] = HCV replicon cell line, FRET assay, read-out: Replicon Inhibition Range EC50

For `CC(C)(C)/N=C1\SC(c2ccc(NC(=O)[C@@H]3CCC(=O)N3C(=O)OCc3ccccc3)cc2)C(=O)N1Cc1ccccn1` (stereo partly shown) [Compound 90], the EC50 [1, 10] was 100 to 1000 nM.
For `O=C(Nc1ccc(C2S/C(=N\c3cccc(Oc4ccccc4)c3)N(Cc3ccco3)C2=O)cc1)[C@@H]1CCCN1C(=O)OCc1ccccc1` (stereo partly shown) [Compound 34], the EC50 [1, 10] was 100 to 1000 nM.
`C[C@H](NC(=O)OCc1ccccc1)C(=O)Nc1ccc(C2S/C(=N\c3ccc(N4CCOCC4)cc3)N(c3ccccn3)C2=O)cc1` (stereo partly shown) [Compound 93] was tested, and the EC50 [1, 10] was 100 to 1000 nM.
In the case of `O=C(Nc1ccc(C2S/C(=N\c3ccc(N4CCOCC4)cc3)N(Cc3cccnc3)C2=O)cc1)[C@@H]1CCCN1C(=O)OCc1ccccc1` (stereo partly shown) [Compound 81], the EC50 [1, 11] is reported as 100 to 1000 nM and the EC50 ([1]; Hepatitis C virus, 72 h, FRET assay, read-out: EC50 in monotherapy) is reported as 9 to 11 nM.
In the case of IFN-α, the EC50 ([1]; FRET) is reported as 2.9 units of IFN-α per milliliter, the EC50 (HCV replicon [2]) is reported as 1.9 units of IFN-α per milliliter and the EC50 (HCV replicon [3]) is reported as 5.3 units of IFN-α per milliliter.
In the case of `C[C@H](NC(=O)OCc1ccccc1)C(=O)Nc1ccc(C2S/C(=N\c3ccc(N4CCOCC4)cc3)N(Cc3ccccn3)C2=O)cc1` (stereo partly shown) [Compound 80], the EC50 [1, 11] is reported as 100 to 1000 nM.
`O=C(Nc1ccc(C2S/C(=N\c3cccc(F)c3)N(Cc3ccco3)C2=O)cc1)[C@@H]1CCCN1C(=O)Cc1ccccc1` (stereo partly shown) [Compound 127] showed an EC50 [1, 10] of less than 100 nM.
`O=C(Nc1ccc(C2S/C(=N\c3ccc(N4CCOCC4)cc3)N(Cc3cccnc3)C2=O)cc1)[C@@H]1CCCN1C(=O)OCc1ccccc1` (stereo partly shown) [Compound 94] was tested, and the EC50 [1, 10] was less than 100 nM.
`C[C@H](NC(=O)OCc1ccccc1)C(=O)Nc1ccc(C2S/C(=N\c3ccc(C(F)(F)F)cc3)N(Cc3ccco3)C2=O)cc1` (stereo partly shown) [Compound 62] gave an EC50 [1, 11] of 1000 to 5000 nM.
In the case of `C[C@H](NC(=O)Cc1ccccc1)C(=O)Nc1ccc(C2S/C(=N\c3cccc(F)c3)N(Cc3ccco3)C2=O)cc1` (stereo partly drawn) [Compound 124, (N-{4-[2-(3-fluorophenylimino)-3-furan-2-ylmethyl-4-oxo-thiazolidin-5-yl]phenyl}-2S-(phenylacetylamino))propionamide], the CC50 [4] is reported as greater than 5000 nM, the “replication of the wild-type replicon” value ([5]; 0.5 μM Compound 124) is reported as “completely inhibited” and the “rlu 48 h” value ([5]; wt clone, 0.5 μM 124, 48 h) is reported as 3237 rlu. For the same compound, the “rlu 72 h” value ([5]; wt clone, 0.5 μM 124, 72 h) was 3184 rlu, the decrease in replication ([6]; Y2065C replicon, 0.5 μM Compound 124) was 10–15% and the “rlu 48 h” value ([6]; Y > C clone, 0.5 μM 124, 48 h) was 7186 rlu. For the same compound, the “rlu 72 h” value ([6]; Y > C clone, 0.5 μM 124, 72 h) was 9696 rlu and the CC50 [7] was greater than 5000 nM.
`C[C@H](NC(=O)OCc1ccccc1)C(=O)Nc1ccc(C2S/C(=N\c3cccc(F)c3)N(Cc3ccco3)C2=O)cc1` (stereo partly drawn) [Compound 1, (1S-(4-[2-(3-Fluorophenylimino)-3-furan-2-ylmethyl-4-oxo-thiazolidin-5-yl]-phenylcarbamoyl)ethyl)carbamic acid benzyl ester] was tested, and the CC50 [4] was greater than 5000 nM, the “resistance between wt replicon cells and selected replicon cells” value [8] was “approximately 60 fold” and the CC50 [7] was greater than 5000 nM. The Number of colonies ([9]; Wild-type RNA transfected, 2 μM Compound 1, 3 weeks G418 selection) was 3 and the “reduction in colony number” value ([9]; wild-type replicon RNA, 2 μM Compound 1) was 95%.
